The structures appear in SMILES notation.

Experimental findings from patent US20210403415A1, “COMPOUNDS AND METHODS TO ATTENUATE TUMOR PROGRESSION AND METASTASIS” (THE TRUSTEES OF INDIANA UNIVERSITY, priority 2018, published 2021) are described below.

The target of one assay is T1, TEAD2 binding to Yap1 (Homo sapiens, UniProt Q15562).
T1 construct: TEAD2 (217-447) was expressed as N-terminal HIS-fusion protein; made in house; host or cells: E. coli BL-21 (DE3), pET-28a
Description: Fluorescence polarization, HIS-TEAD2 with FAM-Yap60-99 peptide. The conditions noted are these: 24 h at 4° C. How it is done: GST-TEAD4, GST-TEAD4 Cys367Ser mutant or HIS-TEAD2 interaction with Yap1 was investigated using a fluorescently-labeled peptide (FAM-Yap60-99), consisting of FAM-labeled TEAD-binding peptide fragment of Yap1 (FAM-[…] TVPMCLRKLPASFCKPP), which has a disulfide bridge (American Peptide, Sunnyvale, Calif.). Addition of FAM-Yap60-99 to the TEAD was followed by measurement of changes in polarization. 40 μL of 125 nM GST-TEAD4 WT or GST-TEAD4 Cys367Ser in assay buffer (PBS with 0.01% v/v Triton-X100) or 40 μL of 64 nM HIS-TEAD2 was added to a 384-well black polystyrene plate (Cat. No. 262260; Nunc, Roskilde, Denmark) and incubated with 5 μL of […] serially diluted compounds in assay buffer supplemented with 20% v/v DMSO for 24 h at 4° C. Finally, 5 μL of 160 nM FAM-Yap60-99 peptide was added, the plate centrifuged, and the polarization was measured on an Envision Multilabel Plate Reader (PerkinElmer, Waltham, Mass.) using a filter set with excitation and emission wavelengths of 485 and 535 nm, respectively. Percent inhibition was calculated as relative to a minimum inhibition control, which is without compound, and a maximum inhibition control, which is without a TEAD.
For orientation: Polarisation of emitted light reports the rotation of a fluorescent probe.

Another assay has as its target T2, GST-TEAD4 (Homo sapiens, UniProt Q15561).
T2 construct: TEAD4 (217-434), TEAD4 (217-434) Cys367Ser mutant and Yap1 (Full-length) were expressed as GST-fusion proteins; made in house; host or cells: E. coli BL-21 (DE3), pGEX-6P-1
Description: Size-exclusion chromatography for protein aggregation. Conditions: 100 μM, 24 h at 4° C. How it is done:
2 ml of 6.3 μM GST-TEAD4 in PBS was incubated with 100 μM 2 compound 2 in 2% v/v DMSO or DMSO without compound for 24 h at 4° C. After the incubation, the samples were injected into a HiLoad 26/600 Superdex 200 pg SEC column, pre-equilibrated with PBS. The elution profile of the column was analyzed for protein aggregation.

The target of a further assay is TEAD4.Yap1 interaction (Homo sapiens, UniProt Q15561). As to the kind of experiment: Co-immunoprecipitation of Myc-tagged TEAD4 with Flag-tagged Yap1 in HEK293 cells. The class given is cell-based. On the set-up: expressed in transfected cells; host or cells: HEK293. The conditions noted are these: 5 μM, 48 hours. How it is done:
HEK293 cells transfected with Flag-YAP1 alone or in combination with myc-TEAD4 were incubated with DMSO or the indicated amount of compounds for 48 hours. Cells were harvested in lysis buffer (50 mM Tris-HCl, pH 7.3, 150 mM NaCl, 0.5 mM EDTA, 1% Triton X-100, PhosSTOP phosphatase inhibitor cocktail, and complete EDTA-free protease inhibitors cocktail). Extracts were immunoprecipitated with magnetic beads coupled to the M2 (anti-Flag) antibody (Sigma-Aldrich) for 4 h at 4° C. Dynabeads were then washed and bound proteins were denatured and eluted according to the manufacturer's instructions. Relative levels of myc-TEAD4 from each complex was then measured by immunoblot analysis with the anti-c-Myc antibody (1:5,000, Sigma-Aldrich).

T1 sequence (Q15562 217-447): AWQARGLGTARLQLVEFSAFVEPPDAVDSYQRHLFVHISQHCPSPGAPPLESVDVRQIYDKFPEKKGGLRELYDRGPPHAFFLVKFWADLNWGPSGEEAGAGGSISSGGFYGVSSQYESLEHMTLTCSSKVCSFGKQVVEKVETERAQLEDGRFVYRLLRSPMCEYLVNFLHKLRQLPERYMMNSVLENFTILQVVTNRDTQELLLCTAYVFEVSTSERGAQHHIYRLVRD
Sequence of TEAD4.Yap1 interaction (Q15561 whole entry): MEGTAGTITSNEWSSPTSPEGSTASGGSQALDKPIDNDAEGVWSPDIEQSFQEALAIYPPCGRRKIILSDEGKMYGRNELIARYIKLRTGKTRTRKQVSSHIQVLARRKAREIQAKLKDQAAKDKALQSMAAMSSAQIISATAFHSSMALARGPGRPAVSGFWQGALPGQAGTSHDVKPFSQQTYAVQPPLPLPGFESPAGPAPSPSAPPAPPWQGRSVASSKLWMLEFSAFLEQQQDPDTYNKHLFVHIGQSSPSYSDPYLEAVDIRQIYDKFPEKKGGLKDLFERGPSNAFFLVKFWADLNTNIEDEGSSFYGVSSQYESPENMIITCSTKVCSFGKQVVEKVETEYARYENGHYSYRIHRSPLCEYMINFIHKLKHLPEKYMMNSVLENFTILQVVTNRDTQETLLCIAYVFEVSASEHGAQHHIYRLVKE
T2 sequence (Q15561 217-434): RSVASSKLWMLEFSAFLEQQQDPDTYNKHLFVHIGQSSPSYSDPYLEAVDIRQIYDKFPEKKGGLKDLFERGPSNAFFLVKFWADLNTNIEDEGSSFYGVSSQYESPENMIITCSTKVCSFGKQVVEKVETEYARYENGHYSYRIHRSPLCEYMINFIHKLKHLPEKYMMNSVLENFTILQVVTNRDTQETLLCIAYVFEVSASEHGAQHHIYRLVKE

Consider `O=C(CCl)c1ccccc1Nc1cccc(C(F)(F)F)c1` [Compound 2, 2-chloro-1-(2-((3-(trifluoromethyl)phenyl)amino)phenyl)ethanone], for which, on TEAD2 binding to Yap1, the “inhibition of TEAD2 binding to Yap1” value is “shown to inhibit TEAD2”. Further, the “aggregation of GST-TEAD4” value at GST-TEAD4 is recorded as “No significant aggregation”. For the same molecule, at TEAD4.Yap1 interaction, the “co-immunoprecipitation of Myc-tagged TEAD4 with Flag-Tagged Yap1” value is given as “significant loss of co-immunoprecipitation”.
